Data: PMC9444293 (Investigative Radiology, 2022)
Like-named read-outs stand apart in the source and are kept apart here. Marks after values point to notes of the source that are not given here.

How the values were obtained:
[1] = Nuclear magnetic relaxation dispersion; type: physicochemical; details: 37°C
[2] = rat
[3] = tested on: GS9L (rat glioblastoma) brain tumors; experiment: Contrast-enhanced MRI of GS9L brain tumors in rats; type: in vivo; details: GS9L rats n = 4, 1.5 T, 5 minutes p.i., both 0.1 mmol Gd/kg bw, intraindividual
[4] = tested on: rat hepatocytes; experiment: Metabolism in rat hepatocytes; type: in vitro ADME; details: 2.5 μmol/L (10 μmol Gd/L), 4 hours
[5] = r1-relaxivity at 1.41 T; type: physicochemical, human; details: for r1-Relaxivity in Human Plasma at 37°C, 1.5 T (per molecule): pH 7.4, per molecule
[6] = Osmolality of the formulation; type: physicochemical; details: formulation 0.3 mol Gd/L
[7] = IV 0.1 mmol Gd/kg bw
[8] = tested on: plasma proteins; experiment: Protein binding in rat plasma, equilibrium dialysis; type: in vitro ADME; details: 3 μmol Gd/L, 37°C, 2 hours
[9] = type: physicochemical; details: after 3 days
[10] = Blood-to-plasma partition ratio; type: in vitro ADME; details: 6 human donors, 0.25 mmol Gd/L, 60 minutes, 37°C, mean ± SD
[11] = type: physicochemical; details: 37°C, pH 7.4, 21 days (3 weeks)
[12] = Solubility in buffer solution; type: physicochemical; details: buffer 10 mM Tris-HCl, pH 7.4, room temperature (20°C), 24 hours
[13] = tested on: human hepatocytes; experiment: Metabolism in human hepatocytes; type: in vitro ADME; details: 2.5 μmol/L (10 μmol Gd/L), 4 hours
[14] = tested on: plasma proteins; experiment: Protein binding in human plasma, equilibrium dialysis; type: in vitro ADME; details: 3 μmol Gd/L, 37°C, 2 hours
[15] = HPLC-ICP-MS analysis of rat urine for metabolites; type: in vivo; details: rat urine up to 6 hours after single IV 0.1 mmol Gd/kg bw
[16] = Partition coefficient; type: physicochemical; details: pH 7.4, room temperature
[17] = r1-relaxivity at 3.0 T in human plasma; type: physicochemical; details: for r1-Relaxivity in Human Plasma at 37°C, 3.0 T (per Gd): pH 7.4, per Gd; for r1-Relaxivity in Human Plasma at 37°C, 3.0 T (per molecule): pH 7.4, per molecule
[18] = Number of inner sphere water molecules; type: physicochemical; details: per Gd
[19] = Viscosity of the formulation; type: physicochemical; details: formulation 0.3 mol Gd/L
[20] = 7 days after single IV 0.1 mmol Gd/kg bw
[21] = 7 days after single IV 0.1 mmol Gd/kg bw, LLOQ 0.05
[22] = rat, 3-compartment model, listed as BAY 1747846

**Q.** With `CC(C(=O)NCC(=O)NCC(CNC(=O)CNC(=O)C(C)N1CCN(CC(=O)[O-])CCN(CC(=O)[O-])CCN(CC(=O)[O-])CC1)(CNC(=O)CNC(=O)C(C)N1CCN(CC(=O)[O-])CCN(CC(=O)[O-])CCN(CC(=O)[O-])CC1)CNC(=O)CNC(=O)C(C)N1CCN(CC(=O)[O-])CCN(CC(=O)[O-])CCN(CC(=O)[O-])CC1)N1CCN(CC(=O)[O-])CCN(CC(=O)[O-])CCN(CC(=O)[O-])CC1.[Gd+3].[Gd+3].[Gd+3].[Gd+3]` (stereo not shown) [Gadoquatrane, tetragadolinium [4,10-bis(carboxylatomethyl)-7-{3,6,12,15-tetraoxo-16-[4,7,10-tris-(carboxyl-atomethyl)-1,4,7,10-tetraazacyclododecan-1-yl]-9,9-bis({[({2-[4,7,10-tris-(carboxylatomethyl)-1,4,7,10-tetraazacyclododecan-1-yl]propanoyl}amino)acetyl]-amino}methyl)-4,7,11,14-tetraazahepta-decan-2-yl}-1,4,7,10-tetraazacyclododecan-1-yl]acetate] as the compound, how does the “NMRD r1-relaxivity per Gd, fold higher compared with gadobutrol, in human plasma” value ([1]; human plasma, up to 200 MHz (4.7 T)) read?
**A.** Its value is 2 fold.

**Q.** What about the “NMRD r1-relaxivity per Gd, fold higher compared with gadobutrol, in water” value ([1]; water, 20–200 MHz (0.47–4.7 T)) of the same compound?
**A.** The value was ~ 3 fold.

**Q.** What about the “Gadolinium concentration, Bone marrow” value [2, 20] of the same compound?
**A.** Its value is 0.413 ± 0.048 nmol Gd/g wet tissue.

**Q.** What about the “Gadolinium concentration, Carcass” value [2, 20] of the same compound?
**A.** The value was 0.693 ± 0.126 nmol Gd/g wet tissue.

**Q.** And the “Gadolinium concentration, Heart” value [2, 20]?
**A.** The value was 0.133 ± 0.014 nmol Gd/g wet tissue.

**Q.** What about the “Gadolinium concentration, Intestine” value [2, 20] of the same compound?
**A.** Its value is 0.316 ± 0.120 nmol Gd/g wet tissue.

**Q.** What about the “Gadolinium concentration, Kidney” value [2, 20] of the same compound?
**A.** The value was 20.3 ± 1.37 nmol Gd/g wet tissue.

**Q.** What about the “Gadolinium concentration, Liver” value [2, 20] of the same compound?
**A.** The value was 0.564 ± 0.065 nmol Gd/g wet tissue.

**Q.** What about the “Gadolinium concentration, Lung” value [2, 20] of the same compound?
**A.** Its value is 0.359 ± 0.024 nmol Gd/g wet tissue.

**Q.** What about the “Gadolinium concentration, Mesenterial lymph nodes” value [2, 20] of the same compound?
**A.** Its value is 1.20 ± 0.336 nmol Gd/g wet tissue.

**Q.** What about the “Gadolinium concentration, Muscle” value [2, 20] of the same compound?
**A.** Its value is 0.119 ± 0.021 nmol Gd/g wet tissue.

**Q.** What about the “Gadolinium concentration, Skin” value [2, 20] of the same compound?
**A.** The value was 0.271 ± 0.044 nmol Gd/g wet tissue.

**Q.** And the “Gadolinium concentration, Spleen” value [2, 20]?
**A.** Its value is 0.654 ± 0.175 nmol Gd/g wet tissue.

**Q.** And the “Gadolinium concentration, Stomach” value [2, 20]?
**A.** Its value is 0.182 ± 0.023 nmol Gd/g wet tissue.

**Q.** What about the “Gadolinium concentration, Blood” value [2, 21] of the same compound?
**A.** The value was <0.05* nmol Gd/g wet tissue.

**Q.** What about the “Gadolinium concentration, Brain” value [2, 21] of the same compound?
**A.** The value was <0.08‡ nmol Gd/g wet tissue.

**Q.** What about the “Gadolinium concentration, Bone” value ([2]; femur, 7 days after single IV 0.1 mmol Gd/kg bw) of the same compound?
**A.** The value was 0.470 ± 0.201 nmol Gd/g wet tissue.

**Q.** And the “Amount of Gd recovered in Feces, 0–5 d” value ([2]; in vivo, iv)?
**A.** Its value is 1.35% ± 0.6%.

**Q.** And the “Amount of Gd recovered in Urine, 0–1 d” value ([2]; in vivo, iv)?
**A.** The value was 96.4% ± 3.8%.

**Q.** What about the “Amount of Gd recovered in Urine, 0–5 d” value ([2]; in vivo, iv) of the same compound?
**A.** Its value is 96.9% ± 3.7%.

**Q.** And the “Total recovery of Gd, 0–7 d” value ([2]; in vivo, iv)?
**A.** The value was 98.8% ± 6.2%.

**Q.** What about the “Excreted within 7 days” value ([2]; single IV 0.1 mmol Gd/kg bw) of the same compound?
**A.** The value was > 99 % of the injected dose.

**Q.** What about the “CNR (tumor-to-brain) compared with gadobutrol” value [3] of the same compound?
**A.** The value was “clearly higher CNR”.

**Q.** What about the “In vitro uptake or metabolic degradation in hepatocytes” value [4] of the same compound?
**A.** Its value is “No in vitro uptake or metabolic degradation”.

**Q.** And the “r1-Relaxivity in Human Plasma at 37°C, 1.5 T (per Gd)” value ([5]; 60 MHz (1.41 T), 37°C, pH 7.4, per Gd, mean ± SD, n = 6 batches)?
**A.** Its value is 11.8 ± 0.3 mM⁻¹ s⁻¹.

**Q.** And the “r1-Relaxivity in Human Plasma at 37°C, 1.5 T (per molecule)” value ([5]; 60 MHz (1.41 T), 37°C)?
**A.** The value was 47.2 ± 1.0 mM⁻¹ s⁻¹.

**Q.** What about the “r1-Relaxivity in Human Plasma at 37°C, 1.5 T (per molecule)” value ([5]; 60 MHz (1.41 T), 37°C, listed as gadoquatrane) of the same compound?
**A.** Its value is 47.2 mM⁻¹ s⁻¹.

**Q.** And the “r1-relaxivity in human plasma, fold higher per Gd compared with established GBCAs” value ([5]; human plasma, per Gd, vs established (m)GBCAs)?
**A.** Its value is “more than 2 fold”.

**Q.** What about the “Osmolality at 37°C” value [6] of the same compound?
**A.** The value was 294 (iso-osmolar to blood) mosmol/kg H2O.

**Q.** What about the “Osmolality at 37°C” value ([6]; listed as gadoquatrane) of the same compound?
**A.** The value was 294 mosmol/kg H2O.

**Q.** And the “AUC^∞” value ([7]; rat plasma)?
**A.** Its value is 183 ± 11 (5.8%) μmol·h/L.

**Q.** And the γ-AUC ([7]; rat plasma)?
**A.** The γ-AUC was 1 % of AUC^∞.

**Q.** What about the γ-AUC ([7]; rat plasma, listed as BAY 1747846) of the same compound?
**A.** Its γ-AUC is 1.2 % of AUC^∞.

**Q.** What about the Clplasma ([7]; rat) of the same compound?
**A.** The Clplasma was 0.55 ± 0.03 (5.8%) L/h/kg.

**Q.** And the Vss ([7]; rat)?
**A.** The Vss was 0.33 ± 0.05 (14%) L/kg.

**Q.** And the “α t1/2” value ([7]; rat, 3-compartment model, mean estimate ± SD (CV%))?
**A.** Its value is 6.3 ± 1.5 (24%) min.

**Q.** And the “β t1/2” value [7, 22]?
**A.** Its value is 25 ± 1.6 (6.4%) min.

**Q.** What about the “γ t1/2” value [7, 22] of the same compound?
**A.** Its value is 13 ± 2.9 (22%) h.

**Q.** What about the “Free fraction in plasma (fraction unbound)” value [8] of the same compound?
**A.** The value was 93%.

**Q.** What about the “Decrease of the T1 relaxation rates (R1) in zinc transmetallation assay” value [9] of the same compound?
**A.** Its value is “no Gd^3+ release”.

**Q.** And the “Decrease of the T1 relaxation rates (R1) in zinc transmetallation assay” value ([9]; listed as gadoquatrane)?
**A.** The value was “no change”.

**Q.** And the Blood-to-plasma ratio [10]?
**A.** The Blood-to-plasma ratio was 0.62 ± 0.06.

**Q.** What about the “Total Gd release after 21 days in human serum” value [11] of the same compound?
**A.** The value was “no release of Gd^3+”.

**Q.** And the Solubility [12]?
**A.** Its Solubility is 1.43 mol Gd/L.

**Q.** What about the “In vitro uptake or metabolic degradation in hepatocytes” value [13] of the same compound?
**A.** Its value is “No in vitro uptake or metabolic degradation”.

**Q.** What about the “Free fraction in plasma (fraction unbound)” value [14] of the same compound?
**A.** Its value is 96%.

**Q.** What about the “Metabolic stability / formation of metabolites in urine” value [15] of the same compound?
**A.** The value was “high metabolic stability and no hint of formation of metabolites”.

**Q.** And the “Log P (1-Butanol/Buffer)” value [16]?
**A.** Its value is −4.32.

**Q.** What about the “r1-Relaxivity in Human Plasma at 37°C, 3.0 T (per Gd)” value [17] of the same compound?
**A.** Its value is 10.5 ± 0.3 mM⁻¹ s⁻¹.

**Q.** And the “r1-Relaxivity in Human Plasma at 37°C, 3.0 T (per Gd)” value ([17]; listed as gadoquatrane)?
**A.** The value was 10.5 mM⁻¹ s⁻¹.

**Q.** What about the “r1-Relaxivity in Human Plasma at 37°C, 3.0 T (per molecule)” value [17] of the same compound?
**A.** The value was 41.9 ± 0.6 mM⁻¹ s⁻¹.

**Q.** And the “r1-Relaxivity in Human Plasma at 37°C, 3.0 T (per molecule)” value ([17]; listed as gadoquatrane)?
**A.** The value was 41.9 mM⁻¹ s⁻¹.

**Q.** What about the “No. Inner Sphere Water Molecules (q)” value [18] of the same compound?
**A.** The value was “q = 1”.

**Q.** And the “No. Inner Sphere Water Molecules (q)” value ([18]; listed as gadoquatrane)?
**A.** Its value is 1.

**Q.** What about the “Viscosity at 37°C” value [19] of the same compound?
**A.** The value was 1.22 mPa·s.
